Test results published in patent US8003645B2, “Preventives or remedies for Alzheimer's disease, or amyloid protein fibril-formation inhibitors, which include a nitrogen-containing heteroaryl compound” (BTG International Ltd., priority 2001, dated 2011).
Like-named read-outs stand apart in the source and are kept apart here. Values belong to the compound of their own block, whether it stands above or below them.

How the values were obtained:
HeLa cells = experiment: Action in inhibiting the lowering of MTT reduction capacity by Aβ1-40; format: cell-based
Protocol: The HeLa cells employed were purchased from the Dainippon Pharmaceutical Co.
The HeLa cells were seeded by suspension in MEM (Minimum essential medium; produced by the Sigma Chemical Co.) containing 10% inactivated FBS (foetal bovine serum) such that there were 1,000 per well in a 96-well microplate, and then culturing was carried out overnight in an incubator at 37° C. in the presence of 5% CO2.
The test compound was dissolved in dimethyl sulphoxide (DMSO) and diluted with the MEM medium so that the final concentration of DMSO was no more than 0.1 wt %, and added to the cells seeded the previous day. […] Overnight culturing was carried out using an incubator at 37° C. in the presence of 5% CO2, with 100 μL/well of MEM medium containing 5% deactivated FBS.
Now, prior to use, the Aβ1-40 had been dissolved in buffer and left overnight so that the amyloid coagulated.
In order to determine the percentage inhibition of the test compound, cells alone, cells where Aβ1-40 had been added, and cells where only the test compound had been added, were also incubated overnight under the same conditions.
The following day, there was added 10 μL/well of MTT [3-(4,5-dimethylthiazol-2-yl)-2,5-diphenyltetrazolium bromide: produced by Wako Pure Chemical Industries] prepared at a concentration of 5 mg/mL with phosphate buffered saline (PBS), and incubation carried out for 2 hours at 37° C. in the presence of 5% CO2. The medium was then eliminated and the formazan dye produced measured […] (A570 nm-A650 nm) using a Microplate Reader (produced by the Molecular Devices Co.), by dissolving with the addition of 100 μL per well of isopropanol. In this way, the change in the MTT reduction capacity of the HeLa cells was measured.
The percentage inhibition (%) by the test compound was determined from the following formula. inhibition (%) [[…]/(a−c)]×100 where • a=MTT reduction capacity when untreated • b=MTT reduction capacity when Aβ1-40 and the test compound are added • c=MTT reduction capacity when only Aβ1-40 is added

[1] = test system: acute sections from the hippocampus; experiment: Suppression of Aβ1-42-induced long-term potentiation impairment (fEPSP slope) in acute hippocampal sections; format: cell-based, Wistar rats; settings: for effect of compound on its own on LTP (result in words): compound alone; for impairment of the LTP due to Aβ1-42 (result in words): pretreating 5 hours with Aβ1-42 together with the compound
Protocol: The method for testing the suppression of the impairment of long-term potentiation was based on that described in J. Neurosci. Vol. 20, 2003-10 (2000). That is to say, acute^i sections of thickness 400 μm were prepared from the hippocampus of the brains of 3-4 week old male Wistar rats. These acute sections were immersed in artificial cerebrospinal fluid in which β-amyloid protein (Aβ1-42: produced by the Sigma Chemical Co.) and compound from Production Examples 1 or 12 had been dissolved, and pretreatment carried out for 5 hours.
In the measurement using the compound from Production Example 1, the concentration of the Aβ1-42 in the artificial cerebrospinal fluid was 500 nM and the concentration of the compound from Production Example 1 was 1 μg/mL. In the measurement using the compound from Production Example 12, the concentration of the Aβ1-42 in the artificial cerebrospinal fluid was 1 μM and the concentration of the compound from Production Example 12 was 3 μg/mL. Now, the Aβ1-42 was used after coagulation of the amyloid by leaving overnight.
100 pulses of high frequency stimulation at 100 Hz were applied to the pretreated acute sections, and the field excitatory postsynaptic potential: fEPSP) measured by an extracellular recording method.
The fEPSP was measured at 30 second intervals following application of the high frequency stimulation and the fEPSP slope (units [%]) measured. The average values of the slope over 0-20 minutes, 20-40 minutes and 40-60 minutes were determined. This test was repeated five times over. In the table, the figures are the average values ±standard deviation for the five averages obtained in the five tests. […] “Aβ” denotes the Aβ1-42.
As controls, measurements were made of the fEPSP [mV] under the same conditions for acute sections pretreated with the artificial cerebrospinal fluid alone, acute sections pretreated with the artificial cerebrospinal fluid in which Aβ1-42 had been dissolved, and acute sections pretreated with artificial cerebrospinal fluid in which only the compound from Production Example 1 or 12 had been dissolved, and then the average value of the fEPSP slope [%] obtained.

Aβ1-42 = Aβ1-42 (Homo sapiens, UniProt P05067); experiment: Aβ fibril-formation inhibiting action, thioflavin binding assay; format: biochemical; settings: for activity at 100 µg/mL: Aβ1-42 25 μM + compound 100 μg/mL, incubation 2 days at 37° C., Aβ1-42 alone taken as 100, read-out: fibril-formation inhibiting action (fluorescent intensity %); for Aβ fibril-formation (result in words): compound added prior to fibril formation, thioflavin fluorescence
Protocol: (§1) The Aβ fibril-formation inhibiting action and fibrillar Aβ breakdown action were evaluated using the thioflavin binding assay method. The details of the test method are based on the method described in J. Biol. Chem. Vol. 274, 25945-25952 (1999).
In the measurement of the inhibition of Aβ fibril-formation, the concentration of the Aβ1-42 was 25 μM and the concentration of the compound synthesized in Production Example 4 or Production Example 12 was 100 μg/mL in each case. The measurement of the Aβ fibril-formation inhibiting action was carried out following incubation for 2 days at 37° C. of the Aβ1-42 alone and of the Aβ1-42 to which the compound synthesized in Production Example 4 or Production Example 12 had been added.
(§2) The measurements of the Aβ fibril-formation inhibiting action and of the fibrillar Aβ breakdown action were carried out by placing a 100 μL sample obtained by pretreatment as described above, plus 800 μL of distilled water, 1 mL of glycine (100 mM) and 50 μL of thioflavin (100 μM) in a cuvette, and measuring the fluorescence at an excitation wavelength of 435 nm and a fluorescence wavelength of 490 nm.
(§3) The figures in the table show the calculated percentages taking the fluorescent intensity obtained when the fluorescence of the sample obtained by incubating Aβ1-42 (25 μM) alone by the above method, and measured at an excitation wavelength of 435 nm and a fluorescence wavelength of 490 nm, was taken as 100. The figures are in the form of the average value ±standard deviation, for the three to nine averages obtained in three to nine tests. […] “Aβ” is for the Aβ1-42.

fibrillar Aβ1-42 = fibrillar Aβ1-42 (Homo sapiens, UniProt P05067); experiment: Fibrillar Aβ breakdown action, thioflavin binding assay; format: biochemical; settings: for fibrillar breakdown action (fluorescent intensity %): Aβ1-42 25 μM incubated 2 or 3 days at 37° C., then compound 100 μg/mL, further 2 days, Aβ1-42 alone taken as 100; for fibrillar Aβ breakdown action (result in words): compound added after fibril formation, thioflavin fluorescence
Protocol: as §1
In the measurement of the fibrillar Aβ breakdown action, the concentration of the Aβ1-42 was 25 μM and the concentration of the compound synthesized in Production Example 4 or Production Example 12 was 100 μg/mL in each case. After incubating the Aβ1-42 for 2 days or 3 days at 37° C., the compound synthesized in Production Example 4 or Production Example 12 was or was not added, and then further incubation performed for 2 days, after which measurement of the fibrillar Aβ breakdown action was performed.
as §2, §3

[2] = Table 8, Aβ (1 μM) + compound 1 μg/mL
[3] = Table 8, compound alone 1 μg/mL, no Aβ
[4] = Homo sapiens, HeLa cells, Aβ1-40 (100 nM), read-out: IC50 (action in inhibiting the lowering of the MTT reduction capacity by Aβ1-40)
[5] = Test 1, Aβ1-42 (500 nM) + compound 1 μg/mL
[6] = Test 1, compound alone 1 μg/mL, no Aβ
[7] = Test 2, Aβ1-42 (1 μM) + compound 3 μg/mL
[8] = Test 2, compound alone 3 μg/mL, no Aβ

Aβ1-42, sequence (P05067 672-713): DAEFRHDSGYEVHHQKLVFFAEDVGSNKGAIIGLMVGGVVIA
fibrillar Aβ1-42, sequence (P05067 672-713): as above

SMILES: CC1(C)CC(C)(c2ccc(O)cc2O)c2ccc(O)cc2O1 (centres unmarked) [Compound A, 4-(7-hydroxy-2,4,4-trimethyl-chroman-4-yl)benzene-1,3-diol, reference compound]
IC50 (HeLa cells; same method as Table 6, HeLa cells, Aβ1-40, read-out: 50% inhibitory concentration (IC50), action in suppressing the lowering of MTT function): 12 µM
Value of fEPSP Slope [%] 0-20 minutes [1, 2]: 159.5 ± 6.6%
Value of fEPSP Slope [%] 20-40 minutes [1, 2]: 142.8 ± 5.4%
Value of fEPSP Slope [%] 40-60 minutes [1, 2]: 137.3 ± 4.5%
Value of fEPSP Slope [%] 0-20 minutes [1, 3]: 168.6 ± 13.0%
Value of fEPSP Slope [%] 20-40 minutes [1, 3]: 146.6 ± 15.9%
Value of fEPSP Slope [%] 40-60 minutes [1, 3]: 149.7 ± 16.1%

SMILES: Cc1nc(Nc2cccc(O)c2)cc(Nc2cccc(O)c2)n1 [Production Example 4, 2-Methyl-N,N′-bis(3-hydroxyphenyl)pyrimidine-4,6-diamine]
IC50 (HeLa cells; [4]): 6 µM
activity at 100 µg/mL (Aβ1-42): 16.3 ± 5.3%
Aβ fibril-formation (result in words) (Aβ1-42): Aβ fibril-formation was inhibited
fibrillar breakdown action (fluorescent intensity %) (fibrillar Aβ1-42): 30.63 ± 1.26%
fibrillar Aβ breakdown action (result in words) (fibrillar Aβ1-42): there was a fibrillar Aβ breakdown action

SMILES: Oc1cccc(Nc2cc(Nc3cccc(O)c3)ncn2)c1 [Production Example 5, N,N′-bis(3-hydroxyphenyl)pyrimidine-4,6-diamine]
IC50 (HeLa cells; [4]): 9.6 µM

SMILES: Oc1cccc(Nc2ccnc(Nc3cccc(O)c3)n2)c1 [Production Example 6, N,N′-bis(3-hydroxyphenyl)pyrimidine-2,4-diamine]
IC50 (HeLa cells; [4]): 6.7 µM

SMILES: CCCCc1nc(Nc2cccc(O)c2)cc(Nc2cccc(O)c2)n1 [Production Example 8, 2-Butyl-N,N′-bis(3-hydroxyphenyl)pyrimidine-4,6-diamine]
IC50 (HeLa cells; [4]): 5.5 µM

SMILES: CCCc1nc(Nc2cccc(O)c2)nc(Nc2cccc(O)c2)n1 [Production Example 10, N,N′-bis(3-hydroxyphenyl)-6-propyl-1,3,5-triazine-2,4-diamine]
IC50 (HeLa cells; [4]): 4.2 µM

SMILES: Oc1cccc(Nc2ccc(Nc3cccc(O)c3)nn2)c1 [Production Example 12, N,N′-bis(3-hydroxyphenyl)pyridazine-3,6-diamine]
Value of fEPSP Slope [%] 0-20 minutes [1, 7]: 161.7 ± 2.6%
Value of fEPSP Slope [%] 20-40 minutes [1, 7]: 148.1 ± 3.1%
Value of fEPSP Slope [%] 40-60 minutes [1, 7]: 146.2 ± 4.6%
Value of fEPSP Slope [%] 0-20 minutes [1, 8]: 175.3 ± 7.4%
Value of fEPSP Slope [%] 20-40 minutes [1, 8]: 162.9 ± 9.8%
Value of fEPSP Slope [%] 40-60 minutes [1, 8]: 160.8 ± 10.3%
effect of compound on its own on LTP (result in words) ([1]; no Aβ): inactive on its own
impairment of the LTP due to Aβ1-42 (result in words) [1]: suppressed
activity at 100 µg/mL (Aβ1-42): 1.69 ± 1.32%
Aβ fibril-formation (result in words) (Aβ1-42): Aβ fibril-formation was inhibited
fibrillar breakdown action (fluorescent intensity %) (fibrillar Aβ1-42): 28.49 ± 5.17%
fibrillar Aβ breakdown action (result in words) (fibrillar Aβ1-42): there was a fibrillar Aβ breakdown action

SMILES: Nc1nc(Nc2cccc(O)c2)cc(Nc2cccc(O)c2)n1 [Production Example 13, 2-Amino-N,N′-bis(3-hydroxyphenyl)pyrimidine-4,6-diamine]
IC50 (HeLa cells; [4]): 5.5 µM

SMILES: CCC(C)c1nc(Nc2cccc(O)c2)nc(Nc2cccc(O)c2)n1 (centres unmarked) [Production Example 34, 6-s-Butyl-N,N′-bis(3-hydroxyphenyl)-1,3,5-triazine-2,4-diamine]
IC50 (HeLa cells; [4]): 4.1 µM

More lines, main results first:

IC50 (HeLa cells; [4]): 3.5 µM
SMILES: CCc1nc(Nc2cccc(O)c2)nc(Nc2cccc(O)c2)n1 [Production Example 1, 6-Ethyl-N,N′-bis(3-hydroxyphenyl)-1,3,5-triazine-2,4-diamine]
Value of fEPSP Slope [%] 0-20 minutes [1, 5]: 150.0 ± 8.4%
Value of fEPSP Slope [%] 20-40 minutes [1, 5]: 149.6 ± 6.9%
Value of fEPSP Slope [%] 40-60 minutes [1, 5]: 151.2 ± 7.5%
Value of fEPSP Slope [%] 0-20 minutes [1, 6]: 155.3 ± 3.4%
Value of fEPSP Slope [%] 20-40 minutes [1, 6]: 156.5 ± 3.9%
Value of fEPSP Slope [%] 40-60 minutes [1, 6]: 155.8 ± 5.0%
effect of compound on its own on LTP (result in words) ([1]; no Aβ): inactive on its own
impairment of the LTP due to Aβ1-42 (result in words) [1]: suppressed

IC50 (HeLa cells; [4]): 1.9 µM
SMILES: CCc1nc(Nc2cccc(O)c2)cc(Nc2cccc(O)c2)n1 [Production Example 2, 2-Ethyl-N,N′-bis(3-hydroxyphenyl)pyrimidine-4,6-diamine]

IC50 (HeLa cells; [4]): 2.4 µM
SMILES: CCCc1nc(Nc2cccc(O)c2)cc(Nc2cccc(O)c2)n1 [Production Example 9, 2-Propyl-N,N′-bis(3-hydroxyphenyl)pyrimidine-4,6-diamine]

IC50 (HeLa cells; [4]): 3.8 µM
SMILES: O=[N+]([O-])c1c(Nc2cccc(O)c2)ncnc1Nc1cccc(O)c1 [Production Example 18, N,N′-bis(3-hydroxyphenyl)-5-nitropyrimidine-4,6-diamine]

IC50 (HeLa cells; [4]): 2.4 µM
SMILES: Cc1nc(Nc2cccc(O)c2)nc(Nc2cccc(O)c2)n1 [Production Example 27, N,N′-bis(3-hydroxyphenyl)-6-methyl-1,3,5-triazine-2,4-diamine]

IC50 (HeLa cells; [4]): 2.2 µM
SMILES: CC(C)(C)c1nc(Nc2cccc(O)c2)nc(Nc2cccc(O)c2)n1 [Production Example 33, 6-t-Butyl-N,N′-bis(3-hydroxyphenyl)-1,3,5-triazine-2,4-diamine]
